Results as given in patent publication US20210025895A1, “CANCER SERUM BIOMARKERS AND METHODS OF USE THEREOF” (X4 Pharmaceuticals, Inc., priority 2018, published 2021).
“And” between values parts separate entries of the source, which are not always exact repeats. Identical values can stand only once.

How the values were obtained:
[1] = test system: serum cytokines and chemokines; assay: Serum chemokines, cytokines and growth factors in melanoma patients, change vs baseline; type: in vivo, human
Method: (§1) Subjects were first screened and evaluated for baseline measurements.
(§2) Prior to treatment two (2) baseline serum samples were collected from each patient.
(§3) Three (3) weeks after treatment was initiated, additional serum samples were collected from each patient. Additional biopsy samples were also collected unless the attending physician recommended against the biopsy. Following sample collection, subjects were administered the first of two doses of pembrolizumab (2 mg/kg, i.v.).
(§4) Five (5) additional patients were evaluated. Baselines in Tables 1 and 2 represent measurements taken on Day 1. Baselines in Tables 1a and 2a represent an average of two measurements taken at screening and on Day 1.

[2] = test system: CXCL10; assay: Serum CXCL10 in melanoma patients, Multi-Analyte Profile Platform (Myriad RBM); type: in vivo, human; details: individual melanoma patients
Method: as §1, §2, §3
(§5) Three (3) weeks after the administration of the first dose of pembrolizumab (six weeks from beginning of treatment) additional serum samples were collected from each patient. Subjects then administered a second dose of pemrolizumab (2 mg/kg, i.v.).
(§6) Three (3) weeks after the administration of the second dose of pembrolizumab (nine weeks from the beginning of treatment) additional serum samples were collected. Additional biopsy samples were also collected unless the attending physician recommended against the biopsy.
as §4

[3] = Phase 1 and 2a trials; cited from earlier work
[4] = test system: melanoma, renal cell carcinoma, and ovarian cancer; details: murine models; cited from earlier work
[5] = test system: advanced or metastatic melanoma; assay: Tumor sample / tumor microenvironment biomarkers in solid tumors such as melanoma; type: in vivo, human
Method: A primary comparison is the density of specific cell phenotypes in the tumor microenvironment in the pre-treatment biopsy vs. the Week 4 and EOT biopsies. CD8^+ T cells/mm^−2 are measured in melanoma tumor parenchyma prior to treatment.

[6] = test system: CXCL9; assay: Serum CXCL9 in melanoma patients, Multi-Analyte Profile Platform (Myriad RBM); type: in vivo, human; details: individual melanoma patients
Method: as §1, §2, §3, §5, §6, §4

[7] = Solubility of X4P-001; type: physicochemical
[8] = in vivo; details: terminal half-life (T1/2)
[9] = test system: advanced clear-cell renal-cell carcinoma; details: cited from earlier work; for objective response rate: Phase 3, nivolumab 3 mg/kg iv every two weeks vs everolimus 10 mg orally daily, P<0.001
[10] = test system: pancreatic adenocarcinoma; details: cited from earlier work
[11] = test system: unresectable or metastatic melanoma; details: Phase 3 trial, P<0.001; cited from earlier work
[12] = solid tumors, e.g. advanced or metastatic melanoma

Q: With NCCCCN(Cc1nc2ccccc2[nH]1)[C@H]1CCCc2cccnc21 [X4P-001] as the compound, how does the “serum CXCL9 and CXCL10 levels” value ([1]; following monotherapy, melanoma patients) read?
A: The value was “generally increase following monotherapy”.

Q: And the “levels of serum CXCL9 and CXCL10” value ([1]; patients with solid tumors, e.g. advanced or metastatic melanoma)?
A: Its value is “increases levels of serum CXCL9 and CXCL10”.

Q: What about the “levels of serum cytokine panel” value ([1]; serum) of the same compound?
A: The value was “modulates levels of one or more of a panel of serum cytokines”.

Q: And the “Patient Serum CXCL10 Levels, Post-X4P-001 Monotherapy” value ([2]; Table 2, three weeks single agent therapy)?
A: The value was 767 pg/mL and 146 pg/mL and 262 pg/mL and 101 pg/mL and 123 pg/mL and 384 pg/mL and 118 pg/mL and 174 pg/mL and 139 pg/mL and 331 pg/mL and 521 pg/mL.

Q: What about the “Patient Serum CXCL10 Levels, Post-X4P-001 Monotherapy” value ([2]; Table 2a (updated data, 16 patients)) of the same compound?
A: Its value is 767 pg/mL and 146 pg/mL (2×) and 262 pg/mL and 101 pg/mL and 123 pg/mL and 384 pg/mL and 118 pg/mL and 174 pg/mL and 272 pg/mL and 166 pg/mL and 350 pg/mL and 139 pg/mL and 331 pg/mL and 521 pg/mL.

Q: What about the “pharmacodynamic activity, circulating white blood cells (WBCs)” value [3] of the same compound?
A: Its value is “dose- and concentration-related changes in circulating white blood cells”.

Q: What about the “volume of distribution (VL)” value [3] of the same compound?
A: Its value is “high volume of distribution”.

Q: What about the “anti-tumor activity, including decreased metastasis and increased overall survival” value [4] of the same compound?
A: Its value is “significant anti-tumor activity”.

Q: And the “levels of Treg cells” value [5, 12]?
A: The value was “without significantly increasing levels of Treg cells”.

Q: And the “levels of macrophages in the tumor” value [5, 12]?
A: The value was “without significantly modulating levels of macrophages in the tumor”.

Q: And the “numbers of CD8+ T cells and/or CD4+ T cells in tumors” value [5, 12]?
A: The value was “increases observed numbers of CD8^+ T cells and/or CD4^+ T cells”.

Q: And the IFN-γ gene signature ([5]; tumor)?
A: The IFN-γ gene signature was “increases one or more of a panel of IFN-γ related genes”.

Q: And the PD-L1 expression ([5]; tumor samples and tumor microenvironment)?
A: Its PD-L1 expression is “increases PD-L1 expression in tumor samples and the tumor microenvironment”.

Q: What about the “CTL signature gene expression” value ([5]; tumor samples or tumor microenvironment) of the same compound?
A: Its value is “increases gene expression of one or more of a panel of cytotoxic T cell (CTL)-related genes”.

Q: What about the “Patient Serum CXCL9 Levels, Post-X4P-001 Monotherapy” value ([6]; Table 1, three weeks single agent therapy) of the same compound?
A: The value was 836 pg/mL and 2260 pg/mL and 2530 pg/mL and 843 pg/mL and 2020 pg/mL and 1020 pg/mL and 1410 pg/mL and 766 pg/mL and 794 pg/mL and 1380 pg/mL and 425 pg/mL.

Q: What about the “Patient Serum CXCL9 Levels, Post-X4P-001 Monotherapy” value ([6]; Table 1a (updated data, 16 patients)) of the same compound?
A: Its value is 836 pg/mL and 2260 pg/mL and 2530 pg/mL and 843 pg/mL and 2020 pg/mL and 1020 pg/mL and 1410 pg/mL and 766 pg/mL and 1245 pg/mL and 769.5 pg/mL and 460.5 pg/mL and 1030 pg/mL and 1750 pg/mL and 794 pg/mL and 1380 pg/mL and 425 pg/mL.

Q: What about the solubility ([7]; aqueous buffer, pH range 3.0 to 8.0 (freely soluble)) of the same compound?
A: Its solubility is over 100 mg/mL.

Q: What about the solubility in water ([7]; water) of the same compound?
A: The solubility in water was “only slightly soluble”.

Q: What about the half-life [8] of the same compound?
A: The half-life was 12 to 24 h.

Q: With CO[C@H]1C[C@@H]2CC[C@@H](C)[C@@](O)(O2)C(=O)C(=O)N2CCCC[C@H]2C(=O)O[C@H]([C@H](C)C[C@@H]2CC[C@@H](OCCO)[C@H](OC)C2)CC(=O)[C@H](C)/C=C(\C)[C@@H](O)[C@@H](OC)C(=O)[C@H](C)C[C@H](C)/C=C/C=C/C=C/1C [everolimus] as the compound, how does the objective response rate [9] read?
A: Its objective response rate is 5%.

Q: With c1cc(CN2CCCNCCNCCCNCC2)ccc1CN1CCCNCCNCCCNCC1 [plerixafor, Plerixafor] as the compound, how does the “anti-tumor activity, including decreased metastasis and increased overall survival” value [4] read?
A: Its value is “significant anti-tumor activity”.

Q: And the tumor growth ([10]; in combination with anti-PD-L1)?
A: The tumor growth was “synergistically decreased tumor growth”.

Q: And the “T-cell accumulation among cancer cells” value ([10]; murine pancreatic adenocarcinoma)?
A: The value was “induced rapid T-cell accumulation among the cancer cells”.

Q: Which objective response rate [11] does the source give for ipilimumab: anti-CTLA-4 antibody here?
A: The objective response rate was 12%.

Q: Which objective response rate [9] does the source give for “nivolumab: fully human IgG4 monoclonal antibody binding to the PD-1 receptor” here?
A: Its objective response rate is 25%.

Q: And the “incidence of Grade 3 or 4 treatment-related adverse events” value ([9]; vs everolimus)?
A: Its value is “lower incidence of Grade 3 or 4 treatment-related adverse events”.

Q: What about the median overall survival ([9]; vs everolimus) of the same compound?
A: The median overall survival was “longer median overall survival”.

Q: For “pembrolizumab: humanized IgG4 kappa monoclonal antibody that blocks the interaction between PD-1 and its ligands”, which objective response rate [11] is on record?
A: Its objective response rate is 33%.
